This note sets out measurements from patent publication US8889677B2, “Substituted triazoles useful as mGlu5 receptor modulators” (Boehringer Ingellheim International GmbH, priority 2012, dated 2014).

pEC50: −log10 of the molar value.

The term pEC50 denotes −log10 of the EC50, conventionally taken in molar units.

In this assay the target is T1, human recombinant mGluR5 (Homo sapiens, UniProt P41594).
T1 construct: expressed in transfected cells; host or cells: HEK 293 cell line cultured with tetracycline, hygromycin and geneticin; tetracycline removed 3-7 days before the assay
T1 sequence (P41594 21-1212): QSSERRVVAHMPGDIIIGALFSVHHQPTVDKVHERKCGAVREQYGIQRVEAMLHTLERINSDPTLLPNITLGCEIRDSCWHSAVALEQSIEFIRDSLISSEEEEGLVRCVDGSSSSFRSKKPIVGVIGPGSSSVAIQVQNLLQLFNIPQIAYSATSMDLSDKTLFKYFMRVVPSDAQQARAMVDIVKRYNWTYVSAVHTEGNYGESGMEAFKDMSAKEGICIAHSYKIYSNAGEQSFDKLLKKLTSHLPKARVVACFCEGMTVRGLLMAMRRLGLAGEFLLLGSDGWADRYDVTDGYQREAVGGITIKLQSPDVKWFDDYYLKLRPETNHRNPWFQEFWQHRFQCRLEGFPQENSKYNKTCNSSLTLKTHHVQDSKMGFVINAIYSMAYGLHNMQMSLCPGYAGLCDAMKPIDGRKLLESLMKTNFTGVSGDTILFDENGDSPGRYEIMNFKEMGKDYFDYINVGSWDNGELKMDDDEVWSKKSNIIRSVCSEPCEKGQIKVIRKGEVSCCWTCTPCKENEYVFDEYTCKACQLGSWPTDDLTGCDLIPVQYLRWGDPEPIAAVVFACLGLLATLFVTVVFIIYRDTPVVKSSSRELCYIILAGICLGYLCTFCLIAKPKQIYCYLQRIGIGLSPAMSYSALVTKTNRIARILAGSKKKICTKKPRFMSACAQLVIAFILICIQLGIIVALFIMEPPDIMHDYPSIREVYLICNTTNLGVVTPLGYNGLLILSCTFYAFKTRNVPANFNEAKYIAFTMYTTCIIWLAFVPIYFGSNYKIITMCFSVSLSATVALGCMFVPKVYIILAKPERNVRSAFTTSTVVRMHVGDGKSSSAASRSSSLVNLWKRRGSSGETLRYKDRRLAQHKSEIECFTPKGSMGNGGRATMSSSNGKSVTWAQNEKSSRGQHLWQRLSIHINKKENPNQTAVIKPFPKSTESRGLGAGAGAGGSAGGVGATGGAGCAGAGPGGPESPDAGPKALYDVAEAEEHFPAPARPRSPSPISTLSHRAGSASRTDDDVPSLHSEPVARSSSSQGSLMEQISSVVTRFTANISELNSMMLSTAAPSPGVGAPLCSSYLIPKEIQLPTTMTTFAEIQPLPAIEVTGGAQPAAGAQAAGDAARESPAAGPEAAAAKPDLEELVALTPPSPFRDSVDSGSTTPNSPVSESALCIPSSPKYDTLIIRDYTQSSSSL
As to the kind of experiment: positive modulation of mGluR5, calcium based FLIPR assay in HEK 293 cells. The conditions noted are these: HEK 293 cell line expressing human recombinant mGluR5; EC50 of the modulation of the glutamate response (glutamate approx. 5% basal stimulation); peak height of Ca release fluorescence signal. In a few lines:
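HEK 293 cells expressing human mGluR5 (tetracycline-free medium 3-7 days before), loaded with Calcium-4 dye, in Ringer buffer pH 7.4, 1% DMSO. Compound pre-incubated 5 min, then glutamate at about 5% of maximal effect added; EC50 from peak Ca2+ fluorescence by nonlinear regression, scaled between DMSO (100%) and 10 μM CDPPB (200%) controls.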
`CCCCc1nc(-c2ccc(F)c(C)c2)nn1CC(=O)N1CCN(c2cc(OC)ccn2)CC1` [Example 07.04.118.]: the pEC50 is 6.59.
In the case of `CCCCc1nc(-c2ccc(F)c(C)c2)nn1CC(=O)N1CCN(c2cc(OC)ncn2)CC1` [Example 07.04.119.] it was 6.53.
`COc1ccnc(N2CCN(C(=O)Cn3nc(-c4ccc(F)c(C)c4)nc3CCC(C)C)CC2)c1` [Example 07.04.120.]: the negative-log EC50 (pEC50) is 6.82.
The value for `Cc1ccnc(N2CCN(C(=O)Cn3nc(-c4ccc(F)c(C)c4)nc3CCC(C)C)CC2)c1` [Example 07.04.121.] was 6.68; that for `Cc1cc(-c2nc(CCC(C)C)n(CC(=O)N3CCN(c4ncccn4)CC3)n2)ccc1F` [Example 07.04.122.] was 6.85.
Regarding `CCCCCc1nc(-c2ccc(F)c(C)c2)nn1CC(=O)N1CCN(c2cc(OC)ccn2)CC1` [Example 07.04.123.], the pEC50 was 7.04.
Turning to `CCCCCc1nc(-c2ccc(F)c(C)c2)nn1CC(=O)N1CCN(c2ccccn2)CC1` [Example 07.04.124.], the pEC50 was 6.90.
With `CCCCCc1nc(-c2ccc(F)c(C)c2)nn1CC(=O)N1CCN(c2cc(C)ccn2)CC1` [Example 07.04.125.], the pEC50 is 6.96.
As to `CCCCCc1nc(-c2ccc(F)c(C)c2)nn1CC(=O)N1CCN(c2cc(OC)ncn2)CC1` [Example 07.04.126.], the pEC50 was 6.96.
In the case of `CCCCCc1nc(-c2ccc(F)c(C)c2)nn1CC(=O)N1CCN(c2ncccn2)CC1` [Example 07.04.127.] it was 7.19; in that of `Cc1cc(-c2nc(C3CCC(C)CC3)n(CC(=O)N3CCN(c4ncccn4)CC3)n2)ccc1F` (centres unmarked) [Example 07.04.128.], 6.31; in that of `Cc1cc(-c2nc(C3CCC(C)CC3)n(CC(=O)N3CCN(c4ccccn4)CC3)n2)ccc1F` (centres unmarked) [Example 07.04.129.], 5.88.
Regarding `Cc1ccnc(N2CCN(C(=O)Cn3nc(-c4ccc(F)c(C)c4)nc3C3CCC(C)CC3)CC2)c1` (centres unmarked) [Example 07.04.130.], the pEC50 was 6.07.
Regarding `COc1ccnc(N2CCN(C(=O)Cn3nc(-c4ccc(F)c(C)c4)nc3C3CCC(C)CC3)CC2)c1` (centres unmarked) [Example 07.04.131.], the pEC50 was 6.00.
Regarding `COc1cc(N2CCN(C(=O)Cn3nc(-c4ccc(F)c(C)c4)nc3C3CCC(C)CC3)CC2)ncn1` (centres unmarked) [Example 07.04.132.], the pEC50 was 6.02.
Turning to `Cc1cc(-c2nc(C3CCCCC3C)n(CC(=O)N3CCN(c4ccccn4)CC3)n2)ccc1F` (centres unmarked) [Example 07.04.133.], the pEC50 is 5.97.
The value for `Cc1ccnc(N2CCN(C(=O)Cn3nc(-c4ccc(F)c(C)c4)nc3C3CCCCC3C)CC2)c1` (centres unmarked) [Example 07.04.134.] was 5.99; that for `Cc1cc(-c2nc(C3CCCCC3C)n(CC(=O)N3CCN(c4ncccn4)CC3)n2)ccc1F` (centres unmarked) [Example 07.04.135.] was 6.41; that for `COc1ccnc(N2CCN(C(=O)Cn3nc(-c4ccc(F)c(C)c4)nc3C3CCCCC3C)CC2)c1` (centres unmarked) [Example 07.04.136.] was 5.91.
Regarding `COc1cc(N2CCN(C(=O)Cn3nc(-c4ccc(F)c(C)c4)nc3C3CCCCC3C)CC2)ncn1` (centres unmarked) [Example 07.04.137.], the pEC50 is 5.98.
For `Cc1ccnc(N2CCN(C(=O)Cn3nc(-c4ccc(F)cn4)nc3-c3ccc(F)cc3)CC2)c1` [Example 07.04.138.], the pEC50 is 6.00.
As for `O=C(Cn1nc(-c2ccc(F)cn2)nc1-c1ccc(F)cc1)N1CCN(c2ccccn2)CC1` [Example 07.04.139.], the pEC50 was 6.09.
In the case of `O=C(Cn1nc(-c2ccc(F)cn2)nc1-c1ccc(F)cc1)N1CCN(c2ncccn2)CC1` [Example 07.04.140.], the pEC50 is 6.49.
For `COc1cc(N2CCN(C(=O)Cn3nc(-c4ccc(F)cn4)nc3-c3ccc(F)cc3)CC2)ncn1` [Example 07.04.141.], the pEC50 was 6.03.
As to `COc1ccnc(N2CCN(C(=O)Cn3nc(-c4ccc(F)cn4)nc3-c3ccc(F)cc3)CC2)c1` [Example 07.04.142.], the pEC50 was 6.36.
With `Cc1ccnc(N2CCN(C(=O)Cn3nc(-c4ccc(F)cc4)nc3-c3ccc(F)cn3)CC2)c1` [Example 07.04.143.], the pEC50 was 6.11.
Take `Cc1cc(-c2nc(C3CCC(F)(F)CC3)n(CC(=O)N3CCN(c4ncccn4)CC3)n2)ccc1F` [Example 07.04.144.]: the pEC50 was 5.90.
With `Cc1cc(-c2nc(C3CCCC(C)C3)n(CC(=O)N3CCN(c4ncccn4)CC3)n2)ccc1F` (centres unmarked) [Example 07.04.145.], the pEC50 was 6.43.
For the compound `Cc1ccnc(N2CCN(C(=O)Cn3nc(-c4ccc(F)c(C)c4)nc3C3CCCC(C)C3)CC2)c1` (centres unmarked) [Example 07.04.146.], the pEC50 was 5.87.
In the case of `COc1cc(N2CCN(C(=O)Cn3nc(-c4ccc(F)c(C)c4)nc3C3CCCC(C)C3)CC2)ncn1` (centres unmarked) [Example 07.04.147.] it was 6.15; in that of `COc1ccnc(N2CCN(C(=O)Cn3nc(-c4ccc(F)c(C)c4)nc3C3CCCC(C)C3)CC2)c1` (centres unmarked) [Example 07.04.148.], 6.04; in that of `Cc1cc(-c2nc(C3CCCC(C)C3)n(CC(=O)N3CCN(c4ccccn4)CC3)n2)ccc1F` (centres unmarked) [Example 07.04.149.], 6.06.
Turning to `O=C(Cn1nc(-c2ccc(F)cc2)nc1CCc1ccccc1)N1CCN(c2ncccn2)CC1` [Example 07.04.150.], the pEC50 is 6.49.
In the case of `Cc1ccnc(N2CCN(C(=O)Cn3nc(-c4ccc(F)cc4)nc3CCc3ccccc3)CC2)c1` [Example 07.04.151.] it was 6.25; in that of `COc1ccc(-c2nc(-c3ccccc3)n(CC(=O)N3CCN(c4cc(OC)ncn4)CC3)n2)cc1` [Example 07.04.152.], 6.76.
With `Cc1cc(-c2nc(-c3ccc(F)c(C)c3)n(CC(=O)N3CCN(c4ncccn4)CC3)n2)ccc1F` [Example 07.04.153.], the pEC50 is 7.66.
For the compound `Cc1cc(-c2nc(-c3ccc(F)c(C)c3)n(CC(=O)N3CCN(c4ccccn4)CC3)n2)ccc1F` [Example 07.04.154.], the pEC50 was 7.27.
Take `COc1cc(N2CCN(C(=O)Cn3nc(-c4ccc(F)c(C)c4)nc3-c3ccc(F)c(C)c3)CC2)ncn1` [Example 07.04.155.]: the pEC50 was 7.23.
In the case of `COc1cc(-c2nc(-c3ccc(F)cc3)n(CC(=O)N3CCN(c4ncccn4)CC3)n2)ccc1F` [Example 07.04.156.] it was 7.74; in that of `COc1cc(-c2nc(-c3ccc(F)cc3)n(CC(=O)N3CCN(c4ccccn4)CC3)n2)ccc1F` [Example 07.04.157.], 7.44.
On to `COc1cc(N2CCN(C(=O)Cn3nc(-c4ccc(F)c(OC)c4)nc3-c3ccc(F)cc3)CC2)ncn1` [Example 07.04.158.], for which the pEC50 was 7.57.
For `COc1ccc(-c2nc(-c3ccccc3)n(CC(=O)N3CCN(c4cccc(OC)n4)CC3)n2)cc1` [Example 07.04.159.], the pEC50 was 6.55.
For the compound `COc1ccc(-c2nc(-c3ccccc3)n(CC(=O)N3CCN(c4cc(C)ccn4)CC3)n2)cc1` [Example 07.04.160.], the pEC50 was 7.10.
Regarding `COc1cccc(-c2nc(C(C)C)n(CC(=O)N3CCN(c4ncccn4)CC3)n2)c1` [Example 07.04.161.], the pEC50 is 5.82.
On to `COc1cc(N2CCN(C(=O)Cn3nc(-c4ccc(OC(F)F)cc4)nc3-c3ccccc3)CC2)ncn1` [Example 7.04.162], for which the pEC50 is 7.72.
Regarding `CCc1nc(-c2ccc(OC(F)F)cc2)nn1CC(=O)N1CCN(c2ncccn2)CC1` [Example 7.04.163], the pEC50 is 6.07.
`O=C(Cn1nc(-c2ccc(OC(F)F)cc2)nc1-c1ccccc1)N1CCN(c2ccccn2)CC1` [Example 7.04.164]: the pEC50 was 7.66.
Turning to `O=C(Cn1nc(-c2ccc(OC(F)F)cc2)nc1-c1ccccc1)N1CCN(c2ncccn2)CC1` [Example 7.04.165], the pEC50 was 7.89.
For the compound `O=C(Cn1nc(-c2ccccc2)nc1-c1ccc(OC(F)F)cc1)N1CCN(c2ccccn2)CC1` [Example 7.04.166], the pEC50 is 6.37.
For the compound `CCCc1nc(-c2ccc(OC(F)F)cc2)nn1CC(=O)N1CCN(c2ccccn2)CC1` [Example 7.04.167], the pEC50 is 6.28.
For the compound `CCCc1nc(-c2ccc(OC(F)F)cc2)nn1CC(=O)N1CCN(c2ncccn2)CC1` [Example 7.04.168], the pEC50 is 6.60.
As for `CCCc1nc(-c2ccc(OC(F)F)cc2)nn1CC(=O)N1CCN(c2cc(OC)ncn2)CC1` [Example 7.04.169], the pEC50 is 6.03.
Regarding `CCOc1ccnc(N2CCN(C(=O)Cn3nc(-c4ccc(F)cc4)nc3-c3ccc(F)cc3)CC2)c1` [Example 07.05.01., 2-(3,5-Bis-(4-fluoro-phenyl)-(1,2,4)triazol-1-yl)-1-(4-(4-ethoxy-pyridin-2-yl)-piperazin-1-yl)-ethanone], the pEC50 was 7.30.
For `CCc1ccnc(N2CCN(C(=O)Cn3nc(-c4ccc(F)cc4)nc3-c3ccc(F)cc3)CC2)c1` [Example 07.05.02.], the pEC50 is 7.37.
In the case of `CN(C)c1cc(N2CCN(C(=O)Cn3nc(-c4ccc(F)cc4)nc3-c3ccc(F)cc3)CC2)ncn1` [Example 07.06.01., 2-(3,5-Bis-(4-fluoro-phenyl)-(1,2,4)triazol-1-yl)-1-(4-(6-dimethylamino-pyrimidin-4-yl)-piperazin-1-yl)-ethanone] it was 6.78; in that of `CCOc1cc(N2CCN(C(=O)Cn3nc(-c4ccc(F)cc4)nc3-c3ccc(F)cc3)CC2)ncn1` [Example 07.06.02.], 7.15.
On to `COCCOc1cc(N2CCN(C(=O)Cn3nc(-c4ccc(F)cc4)nc3-c3ccc(F)cc3)CC2)ncn1` [Example 07.06.03.], for which the pEC50 is 7.00.
On to `CC(C)Oc1cc(N2CCN(C(=O)Cn3nc(-c4ccc(F)cc4)nc3-c3ccc(F)cc3)CC2)ncn1` [Example 07.06.04.], for which the pEC50 is 6.82.
Consider `O=C(Cn1nc(-c2ccc(F)cc2)nc1-c1ccc(F)cc1)N1CCN(c2cc(OCCO)ncn2)CC1` [Example 07.07.01., 2-(3,5-bis-(4-fluoro-phenyl)-(1,2,4)triazol-1-yl)-1-(4-(6-(2-hydroxy-ethoxy)-pyrimidin-4-yl)-piperazin-1-yl)-ethanone], for which the pEC50 was 6.78.
